These results are taken from PubChem BioAssay AID1333 (NMMLSC, 2008).

The structures appear in SMILES notation.

For this assay, the target named is Cell division control protein 42 homolog (Homo sapiens) (UniProt P60953). Description: activated mutant Cdc42 GTP-binding inhibitors, dose response, biochemical, multiplex bead flow cytometry, Bodipy-FL-GTP (AID 1333).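 Also: potency of compounds that compete with and reduce fluorescent GTP binding.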 Particulars: bead-based flow cytometry.
For `O=C(C#Cc1ccc(F)cc1)c1ccc([N+](=O)[O-])cc1`, the half-maximal effective concentration (EC50) is 3.55 µM. For `Cc1ccc(-n2c(-c3cnccn3)n[nH]c2=S)c(Br)c1` the value was 53.8 µM; for `CC(C)C(NCc1c(Cl)cccc1Cl)C(=O)O` (configuration not stated), 5.85 µM. As for `CCOC(=O)c1cc([N+](=O)[O-])c([N+](=O)[O-])cc1NC(C)=O`, the concentration for a half-maximal effect (EC50) is 7.18 µM. For `Cc1ccc(C)c(OCCn2cc(C(=O)O)c3ccccc32)c1` the value was 0.358 µM; for `COc1ccc(-c2cc(C#N)nc(N3CCNCC3)n2)cc1`, 27.1 µM. With `CCCc1nc2c(=O)n(C)c(=O)nc-2n(C)n1`, the EC50 is 1.77 µM. For `COc1cccc(NC(=O)COC(=O)/C=C/c2ccc(Cl)cc2Cl)c1`, the EC50 was 3.53 µM. In the case of `COc1ccc(C2CC(c3ccccc3)=NN2c2ccc(S(N)(=O)=O)cc2)cc1` (configuration not stated), the EC50 was 8.04 µM. For `Cc1nc2c(=O)n(C)c(=O)nc-2n(C)n1` the value was 1.61 µM. To `Cc1cc(C(=O)Cn2nc(C(=O)O)c3ccccc3c2=O)c(C)n1-c1ccc(OC(F)F)cc1` belongs 4.89 µM; to `O=C(O)c1cc(Sc2ccc(Cl)cc2)nc2ccccc12`, 18.7 µM. To `O=C(Nc1ccccc1)C1=C(c2ccccc2)S(=O)(=O)CCS1(=O)=O` belongs 43.9 µM; to `O=C(C#Cc1ccccc1)c1cccc([N+](=O)[O-])c1`, 13.5 µM. In the case of `COc1cccc(-n2nnnc2S(C)(=O)=O)c1`, the EC50 is 15.4 µM. `O=C(NCc1cccs1)c1cccnc1C(=O)O`: the EC50 was 4.31 µM. For `N#Cc1c(-c2ccccc2)nc(SCC(=O)Nc2ccccc2)[nH]c1=O` the value was 1.66 µM; for `Cc1ccc(NC(=O)C2=C(c3ccccc3)S(=O)(=O)CCS2(=O)=O)cc1`, 58.7 µM; for `CCOc1ccc(/C=C2\SC(N3CCc4ccccc4C3)=NC2=O)cc1`, 16.5 µM.

In the case of `Cc1cccc2cc(CN(Cc3cccs3)C(c3nnnn3C3CCCC3)C(C)C)c(=O)[nH]c12` (configuration not stated), the half-maximal effective concentration (EC50) was 1.63 µM. Consider `Cc1ccc(SC(CC(=O)c2ccc(C(C)(C)C)cc2)C(=O)O)cc1` (configuration not stated), for which the EC50 is 5.11 µM. For `OC(CNCCc1ccc(Cl)cc1)COc1ccc2ccccc2c1` (configuration not stated) the value was 11.3 µM. For `CCn1nc(/C=C/c2ccccc2)nc2c(=O)n(C)c(=O)nc1-2` the value was 1.44 µM. With `O=C(O)/C=C/c1cn(Cc2ccccc2)nc1-c1cccs1`, the half-maximal effective concentration (EC50) was 2.18 µM. To `O=C(O)c1ccccc1Sc1ncnc2sc3c(c12)CCC3` belongs 1.84 µM; to `CS(=O)(=O)c1ccc(C(=O)OCC(=O)NC(=O)C2CCCCC2)cc1[N+](=O)[O-]`, 12.9 µM. To `Cc1cc(C)c(C)c(C(=O)c2ccccc2C(=O)O)c1C` belongs 4.95 µM; to `O=C(NCc1ccc2c(c1)OCO2)c1ccc(CSCc2cccc(Cl)c2)o1`, 20.6 µM. For `COC(=O)c1cccnc1SCCc1ccccc1` the value was 24.2 µM; for `O=C(C#CC1CCCCC1)c1ccc([N+](=O)[O-])cc1`, 45.9 µM; for `CCc1ccc(NS(=O)(=O)c2ccc3[nH]cc(C(=O)N4CCc5ccccc54)c(=O)c3c2)cc1`, 50.1 µM.

In the case of `Cc1nn(Cc2ccccc2)c(Cl)c1C(=O)O`, the concentration giving a half-maximal response (EC50) was 13.9 µM. To `CCCN1C(=O)/C(=C/C=C2\N(CC)c3ccccc3C2(C)C)SC1=S` belongs 5.59 µM; to `O=C(Nc1nnc(-c2ccc3c(c2)OCCO3)o1)c1ccc(Cc2ccccc2)cc1`, 2.79 µM; to `CC(=O)c1ccc(C#CC(=O)c2ccc([N+](=O)[O-])cc2)cc1`, 0.989 µM. `O=C(O)c1ccccc1NCCc1ccc(Cl)cc1`: the concentration giving a half-maximal response (EC50) was 0.885 µM. Take `NS(=O)(=O)c1ccc(N2N=C(c3ccccc3)CC2c2cccc(F)c2)cc1` (configuration not stated): the EC50 was 9.59 µM.
